Patent US7384788B2, “Regulator/promoter for tunable gene expression and metabolite sensing” (priority 2003, dated 2008)

Assays:
[1] = test system: luxCDABE gene fusions; details: cited from earlier work
[2] = test system: E. coli strain DE112; experiment: Growth inhibition by pHBA treatment; type: cell-based; details: Escherichia coli, 25 mM pHBA (acid form), Vogel-Bonner minimal medium with glucose
Protocol: (§1) The alterations in the E. coli gene expression profile upon exposure to pHBA were examined using DNA microarray technology. E. coli strain DE112 (Van Dyk et al. Appl. Environ. Microbiol. 60:1414-1420 (1994)) was grown in Vogel-Bonner minimal medium with glucose as a carbon source to an OD600 of 0.2. At this point the culture was split in two flasks and pHBA in the acid form was added to one flask from a stock solution in ethanol to achieve a final pHBA concentration of 25 mM. The pH of the medium in the flask with pHBA was lowered by an unmeasured amount. An equivalent volume of ethanol without pHBA was added to the other flask. Approximately 58% growth inhibition resulted from the pHBA treatment under these conditions. Cells were harvested from the control and treated flasks at 30 and 60 minutes after pHBA addition. RNA isolation, array hybridization, and data analysis were done as previously described (Wei et al, J. Bacteriol. 183:545-556 (2001), Smulski et al. J. Bacteriol. 183:3353-3364 (2001)). […] These three genes are predicted to be transcribed as an operon. The reproducible observed co-regulation in response to pHBA treatment is consistent with this prediction. Thus, these three genes will be referred to as the yhcRQP operon.

[3] = test system: yhcRQP-luxCDABE gene fusion; experiment: Bioluminescence kinetics in yhcS+ strain DPD2413 (DH5alphaE host), FIG. 1; type: cell-based, E. coli; details: 5 mM pHBA acid form, yhcS+ strain DPD2413, LB medium
Protocol: (§2) E. coli strain DPD2410 is the DH5αE derived strain containing the yhcS::TN<Kan> mutation. Strains DH5αE and DPD2410 were transformed with pDEW655 to generate E. coli strains DPD2413 and DPD2415, respectively. […] The plate was incubated for 90 minutes at 37° C.; then 50 μl of the cultures was added to 50 μl of LB medium or to 50 μl of LB medium containing pHBA in the acid form, which had been added from a stock solution in ethanol. The final concentration of pHBA was 5 mM and the final concentration of ethanol was 0.25%. The pH of the medium with pHBA was lowered by an unmeasured amount. The bioluminescence was quantitated with a Luminoskan Ascent microplate luminometer (Thermo Labsystems, Franklin, Mass.). The results of this study are presented in FIG. 1, which is a plot of the bioluminescence intensity in relative light units (RLU) versus time in minutes. In the Figure, addition of pHBA was made at time zero. Solid lines are the response in the yhcS^+ strain, DPD2413. Dotted lines are the response in the yhcS^− strain, DPD2415. Circles represent pHBA treated cultures and triangles represent untreated cultures.

[4] = test system: yhcP; experiment: DNA microarray gene expression profiling of pHBA-treated E. coli; type: cell-based; details: 25 mM pHBA, 60 minutes
Protocol: as §1

[5] = test system: yhcQ; experiment: as above; type: cell-based; details: 25 mM pHBA, 60 minutes
Protocol: as §1

[6] = test system: yhcR; experiment: as above; type: cell-based; details: 25 mM pHBA, 60 minutes
Protocol: as §1

[7] = test system: yhcRQP-luxCDABE gene fusion; experiment: Bioluminescence response in yhcS+ strain DPD2436 (MG1655 host); type: cell-based, E. coli; details: thirty minutes, LB pH 7.0
Description: A derivative of E. coli strain MG1655 (obtained from Prof. Douglas Berg, Washington University School of Medicine, St. Louis, […].) with the yhcS::TN<Kan> mutation was made by P1clr100Cm mediated transduction using phage grown on strain DPD2410 as a donor and selection for kanamycin resistance. […] Plasmid pDEW655 was moved to E. coli strains MG1655 and DPD2433 by transformation, selecting for Ampicillin resistance to generate strains DPD2436 and DPD2437, respectively. The bioluminescent response of these two strains to pHBA was tested. Aliquots (50 μl) of actively growing cultures at 37° C. in LB medium that had been previously diluted, and from overnight cultures in LB medium with 150 μg/ml Ampicillin were added to 50 μl of LB medium at pH 7.0 containing pHBA as the sodium salt form. Several concentrations of pHBA were tested.
Further characterization of the signals that trigger activation of YhcS, was done using the yhcRQP-luxCDABE gene fusion containing E. coli strains DPD2411 or DPD2436.

[8] = test system: yhcRQP-luxCDABE gene fusion; experiment: Bioluminescence response in yhcS- strain DPD2437 (yhcS::TN<Kan>); type: cell-based, E. coli; details: thirty minutes, LB pH 7.0
Description: A derivative of E. coli strain MG1655 (obtained from Prof. Douglas Berg, Washington University School of Medicine, St. Louis, […].) with the yhcS::TN<Kan> mutation was made by P1clr100Cm mediated transduction using phage grown on strain DPD2410 as a donor and selection for kanamycin resistance. The presence of the yhcS::TN<Kan> mutation in one of the resultant transductants, named DPD2433, was confirmed by PCR amplification. Plasmid pDEW655 was moved to E. coli strains MG1655 and DPD2433 by transformation, selecting for Ampicillin resistance to generate strains DPD2436 and DPD2437, respectively. The bioluminescent response of these two strains to pHBA was tested. Aliquots (50 μl) of actively growing cultures at 37° C. in LB medium that had been previously diluted, and from overnight cultures in LB medium with 150 μg/ml Ampicillin were added to 50 μl of LB medium at pH 7.0 containing pHBA as the sodium salt form. Several concentrations of pHBA were tested.

[9] = test system: yhcRQP-luxCDABE gene fusion; experiment: Bioluminescence kinetics in yhcS- strain DPD2415 (yhcS::TN<Kan>), FIG. 1; type: cell-based, E. coli; details: 5 mM pHBA acid form, yhcS::TN<Kan> strain DPD2415, LB medium
Protocol: as §2

## CCn1cc(C(=O)O)c(=O)c2ccc(C)nc21 [nalidixic acid]
[1]
  up-regulation of genes in luxCDABE gene fusion collection: selective up-regulation of ten genes

## O=C(O)c1ccc(O)cc1 [pHBA, para-hydroxybenzoic acid]
[2]
  inhibition at 25000 µM: ~58%
[3]
  upregulation of yhcRQP-luxCDABE expression (in words, FIG. 1): rapid and dramatic upregulation
[4]; experiment 1
  Ratio (treated/untreated): 6.45
  Signal in pHBA treated: 7.52
[4]; experiment 2
  Ratio (treated/untreated): 12.1
  Signal in pHBA treated: 12.0
[5]; experiment 1
  Ratio (treated/untreated): 4.09
  Signal in pHBA treated: 1.61
[5]; experiment 2
  Ratio (treated/untreated): 22.3
  Signal in pHBA treated: 6.02
[6]; experiment 1
  Ratio (treated/untreated): 72.3
  Signal in pHBA treated: 1.37
[6]; experiment 2
  Ratio (treated/untreated): 10.5
  Signal in pHBA treated: 7.18
[7]; 1.6 mM pHBA sodium salt
  RLU yhcS+: 6.72 RLU
  Ratio treated/control yhcS+: 10.6
[7]; 3.1 mM pHBA sodium salt
  RLU yhcS+: 10.2 RLU
  Ratio treated/control yhcS+: 16.2
[7]; 6.2 mM pHBA sodium salt
  RLU yhcS+: 16.2 RLU
  Ratio treated/control yhcS+: 25.7
[7]; 12.5 mM pHBA sodium salt
  RLU yhcS+: 30.8 RLU
  Ratio treated/control yhcS+: 48.8
[7]; 25 mM pHBA sodium salt
  RLU yhcS+: 66.6 RLU
  Ratio treated/control yhcS+: 106
[7]; 50 mM pHBA sodium salt
  RLU yhcS+: 91.7 RLU
  Ratio treated/control yhcS+: 145
[7]; 100 mM pHBA sodium salt
  RLU yhcS+: 0.437 RLU
  Ratio treated/control yhcS+: 0.693
[8]; 1.6 mM pHBA sodium salt
  RLU yhcS-: 1.02 RLU
  Ratio treated/control yhcS-: 1.25
[8]; 3.1 mM pHBA sodium salt
  RLU yhcS-: 1.16 RLU
  Ratio treated/control yhcS-: 1.42
[8]; 6.2 mM pHBA sodium salt
  RLU yhcS-: 1.42 RLU
  Ratio treated/control yhcS-: 1.75
[8]; 12.5 mM pHBA sodium salt
  RLU yhcS-: 1.82 RLU
  Ratio treated/control yhcS-: 2.23
[8]; 25 mM pHBA sodium salt
  RLU yhcS-: 1.59 RLU
  Ratio treated/control yhcS-: 1.95
[8]; 50 mM pHBA sodium salt
  RLU yhcS-: 0.614 RLU
  Ratio treated/control yhcS-: 0.753
[8]; 100 mM pHBA sodium salt
  RLU yhcS-: 0.045 RLU
  Ratio treated/control yhcS-: 0.055
[9]
  upregulation of yhcRQP-luxCDABE expression (in words, FIG. 1): essentially abolished
